Assay results reported in patent US5665764A, “Tricyclic inhibitors of matrix metalloproteinases” (Warner-Lambert Company, priority 1995, dated 1997).

Assays:
[1] = tested on: experimental allergic encephalomyelitis (EAE); assay: EAE Lewis rat acute model, Protocol 1 (daily oral dosing); assay type: in vivo, female Lewis rats
Description: (§1) The activity of Example 2 in suppressing the inflammatory disease associated with EAE was tested using the Lewis rat acute model. Female Lewis rats were purchased from Harlan Sprague-Dawley (Indianapolis, Ind.) and were used at 8 to 10 weeks of age. Active EAE was induced by injection of 0.05 mL emulsion of myelin basic protein (MBP) with complete Freund's adjuvant (CFA), containing 25 μg guinea pig MBP and 100 μg Mycobacterium butyricum (Difco Laboratories, Detroit, Mich.) into one hind footpad. Immunized rats were observed daily for clinical signs of EAE and scored as follows: 0, no symptoms; 1, loss of tail tonicity; 2, paresis; 3, hind limb paralysis, often accompanied by incontinence; and 4, death. Formalin-fixed brain slice sections were stained with hematoxylin-eosin and evaluated microscopically for perivascular and parenchymal infiltration. Compound was administered by gavage as a solution in sterile saline in a volume of 500 μL. The dose of 50 mg/kg typically required 7.5 mg of compound per rat. Several different protocols were used to define the efficacy and timing retirements for potency.
Protocol 1: Compound was administered daily at 50 mg/kg beginning on Day 0 and continuing through Day 14, with MBP in CFA administered on Day 0 also. […] The percentage of animals responding is also very high with 100% of treated animals-showing either a total inhibition of symptoms (80%) or reduction of symptoms (20%). N=5 for all groups.

[2] = tested on: leukocyte migration across the blood-brain barrier; assay: Histology of brain slices from EAE rats, Protocol 1; assay type: in vivo, Lewis rat; settings: 50 mg/kg daily
Description: as §1

[3] = target: GCD (recombinant gelatinase A catalytic domain); assay: Inhibition of thiopeptolide substrate conversion by GCD; assay type: biochemical; settings: thiopeptolide substrate Ac-Pro-Leu-Gly-thioester-Leu-Leu-Gly-OEt
Source text: Matrix metalloproteinases share high sequence hemology and the catalytic domains of each of the MMPs can be identified by sequence alignment. The gene for the catalytic domain of stromelysin-1, SCD, was constructed by removing the propeptide and C-terminal domain (Ye Q.-Z., Johnson L. L, Hupe D. J., and Baragi V., "Purification and Characterization of the Human Stromelysin Catalytic Domain Expressed in Escherichia coli", Biochemistry,1992;31:11231-11235). The gelatinase A catalytic domain, GCD, was similarly constructed with the additional removal of the fibronectin-like insert which interrupts the catalytic domain (Ye Q.-Z., Johnson L. L., Yu A. E., and Hupe D., "Reconstructed 19 kDa Catalytic Domain of Gelatinase A is an Active Proteinase", Biochemistry, 1995;34:4702-4708). Both truncated proteins cleave synthetic peptide substrates and the natural substrates proteoglycan and gelatin in a manner similar to the full-length enzymes and can be used to identify matrix metalloproteinase inhibitors.
Experiments were carried out with both the full-length enzymes and the catalytic domains. […] IC50 values were determined using a thiopeptolide substrate, Ac-Pro-Leu-Gly-thioester-Leu-Leu-Gly-OEt (Ye Q.-Z., Johnson L. L., Hupe D. J., and Baragi V., "Purification and Characterization of the Human Stromelysin Catalytic Domain Expressed in Escherichia coli", Biochemistry,1992;31:11231-11235). […]

[4] = tested on: experimental allergic encephalomyelitis (EAE); assay: EAE Lewis rat acute model, Protocol 2 (alternate day dosing); assay type: in vivo, female Lewis rats; settings: for Effect on EAE Rats (≥ Paresis/Total): CFA + MBP, PBS control 5/7
Description: as §1
Protocol 2: To determine whether less frequent dosing or dosing at lower levels was still effective at suppressing EAE, compound was administered at either 50 mg/kg or at 10 mg/kg on Day 0 and on alternate days through Day 14. […] Controls run in parallel included CFA only and MBP in CFA. N=4 for treatment groups. N=8 for controls.

Plasma concentrations = assay type: in vivo
[5] = tested on: Mycobacterium footpad edema; assay: Mycobacterium footpad edema assay (MFE); assay type: in vivo, male Wistar rats; settings: daily, third day, statistically significant
Description: The activity of Example 2 as a general inhibitor of inflammation was tested using the Mycobacterium footpad edema assay (MFE) in Wistar rats. Compound was administered daily by gavage at 2 mg/kg, 10 mg/kg, or 50 mg/kg.
Male outbred Wistar rats (110-125 g, Charles River Labs, Portage, Mich.) were used in this study. Rats were housed for a minimum of 1 week before use. Food and water were supplied ad libitum. Foot pad edema was induced following the method described by Martel R. R. and Klicius J., "Comparisons in rats of the anti-inflammatory and gastric irritant effects of etodolac with several clinically effective antiinflammatory drugs", Agents and Actions, 1982;12:295. Briefly, male Wistar rats were injected subcutaneously into the right hind footpad with 0.1 mL of 5 mg/mL suspension of killed and dried Mycobacterium butyricum (Difco, Detroit, Mich.) in liquid paraffin. Compound was suspended in 0.5% hydroxypropylmethylcellulose (HPMC) containing 0.2% Tween-80 and administered orally 1 hour before injection. Subsequent doses of the compound were given 24 and 48 hours after the Mycobacterium. Control animals were given vehicle alone. Swelling was assessed on the third day by subtracting the initial volume (determined immediately following the Mycobacterium injection) from the final volume of the treated paw. Paw volume was determined by mercury plethysmography. The percent inhibition of edema achieved in each compound-treated group was determined by comparison with swelling in the vehicle-treated group and the ID50 values were determined by regression analysis. Statistical significance between experimental groups was evaluated using a Student's t-test.

[6] = tested on: experimental allergic encephalomyelitis (EAE); settings: dose dependent; Gijbels et al. 1994; cited from earlier work
[7] = tested on: bovine nasal and pig articular cartilage; settings: Andrews et al. 1992; Ellis et al. 1994; cited from earlier work

O=C(O)CCC(=NO)c1ccc2oc3ccccc3c2c1 [Example 2, 4-Dibenzofuran-2-yl-4-hydroximino-butyric acid]
effect on average scores for the treated group ([1]; 50 mg/kg daily, Day 0-14): substantially reduced the average scores | treated animals showing either a total inhibition of symptoms or reduction of symptoms ([1]; 50 mg/kg daily, Day 0-14, N=5): 100% | Day of Peak ([1]; CFA + MBP, 50 mg/kg daily oral from Day 0): 12 days | Clinical Grade at Peak of Disease Expression ([1]; CFA + MBP, 50 mg/kg daily oral from Day 0, N=5, SD 1.22, PBS control 3.0): 1.0 | Effect on EAE Rats (≥ Paresis/Total) ([1]; CFA + MBP, 50 mg/kg daily oral from Day 0, PBS control 5/5): 1/5 | Effect on EAE Rats (≥ Paresis/Total) ([1]; CFA without MBP, 50 mg/kg daily oral from Day 0): 0/5 | Clinical Grade at Peak of Disease Expression ([1]; CFA without MBP, 50 mg/kg daily oral from Day 0, N=5, SD 0): 0 | CNS inflammation [2]: little CNS inflammation | cuff formation [2]: no cuff formation | leukocyte migration across the blood-brain barrier [2]: completely prevented | IC50 [3]: 40 nM | Effect on EAE Rats (≥ Paresis/Total) ([4]; 10 mg/kg alternate days): 0/4 | Effect on EAE Rats (≥ Paresis/Total) ([4]; 50 mg/kg alternate days): 0/4 | decrease in disease severity, significance ([4]; Day 15, p≤0.01, 10 or 50 mg/kg alternate days): highly significant | Cmax and AUC(0-b 4) versus dose (Plasma concentrations; 2, 10, 50 mg/kg): increase proportionately with dose | bioavailability versus effective range in vitro (Plasma concentrations; effective range of gelatinase A and stromelysin-1 inhibition in the in vitro assays): well in excess of the effective range of gelatinase A and stromelysin-1 inhibition | % Inhibition of Swelling ([5]; 2 mg/kg oral): 23% | % Inhibition of Swelling ([5]; 10 mg/kg oral): 27% | % Inhibition of Swelling ([5]; 50 mg/kg oral): 40%

CNC(=O)[C@H](Cc1c[nH]c2ccccc12)NC(=O)[C@@H](CC(=O)NO)CC(C)C [GM6001]
clinical expression/development of EAE [6]: suppressed the development or reversed the clinical expression

TIMP-1: natural endogenous inhibitors of MMPs (TIMPs)
formation of collagen fragments [7]: prevented the formation of collagen fragments
